Measurements as given in PMC10893631, “Receptor-based pharmacophore modeling, molecular docking, synthesis and biological evaluation of novel VEGFR-2, FGFR-1, and BRAF multi-kinase inhibitors” (BMC Chemistry, 2024).

Columns and labels:
Assay in all cases: NCI SRB growth inhibition (single dose 10 µM / five-dose)
Type in all cases: cell-based, human
[1] = test system: NCI/ADR-RES; settings: Homo sapiens; NCI/ADR-RES (Ovarian cancer), 10 µM; read-out: GI%
In short: (§1)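 Growth inhibition is derived from seven absorbance readings per agent (Tz, C and five Ti). Where a parameter level is not reached or is exceeded, the value is given as greater or less than the highest or lowest concentration tested.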

[2] = test system: HCT-15; settings: Homo sapiens; HCT-15 (Colon cancer), 10 µM; read-out: GI%
In short: as §1

[3] = test system: SF-295; settings: Homo sapiens; SF-295 (CNS cancer), 10 µM; read-out: GI%
In short: as §1

[4] = test system: MDA-MB-435; settings: Homo sapiens; MDA-MB-435 (Melanoma), 10 µM; read-out: GI%
In short: as §1

[5] = test system: CCRF-CEM; settings: Homo sapiens; CCRF-CEM (Leukemia), 10 µM; read-out: GI%
In short: as §1

[6] = test system: SNB-75; settings: Homo sapiens; SNB-75 (CNS cancer), 10 µM; read-out: GI%
In short: as §1

[7] = test system: SN12C; settings: Homo sapiens; SN12C (Renal cancer), 10 µM; read-out: GI%
In short: as §1

[8] = test system: SK-OV-3; settings: Homo sapiens; SK-OV-3 (Ovarian cancer), 10 µM; read-out: GI%
In short: as §1

[9] = test system: NCI-H226; settings: Homo sapiens; NCI-H226 (Non-small cell lung cancer), 10 µM; read-out: GI%
In short: as §1

[10] = test system: HOP-62; settings: Homo sapiens; HOP-62 (Non-small cell lung cancer), 10 µM; read-out: GI%
In short: as §1

[11] = test system: RXF 393; settings: Homo sapiens; RXF 393 (Renal cancer), 10 µM; read-out: GI%
In short: as §1

[12] = test system: SK-MEL-5; settings: Homo sapiens; SK-MEL-5 (Melanoma), 10 µM; read-out: GI%
In short: as §1

[13] = test system: IGROV1; settings: Homo sapiens, IGROV-1; IGROV1 (Ovarian cancer), 10 µM; read-out: GI%
In short: as §1

[14] = test system: PC-3; settings: Homo sapiens; PC-3 (Prostate cancer), 10 µM; read-out: GI%
In short: as §1

[15] = test system: A498; settings: Homo sapiens; A498 (Renal cancer), 10 µM; read-out: GI%
In short: as §1

[16] = test system: MDA-MB-231/ATCC; settings: Homo sapiens; MDA-MB-231/ATCC (Breast cancer), 10 µM; read-out: GI%
In short: as §1

[17] = test system: NCI-H460; settings: Homo sapiens; NCI-H460 (Non-small cell lung cancer), 10 µM; read-out: GI%
In short: as §1

[18] = test system: NCI-H23; settings: Homo sapiens; NCI-H23 (Non-small cell lung cancer), 10 µM; read-out: GI%
In short: as §1

[19] = test system: SF-268; settings: Homo sapiens; SF-268 (CNS cancer), 10 µM; read-out: GI%
In short: as §1

[20] = test system: NCI-H522; settings: Homo sapiens; NCI-H522 (Non-small cell lung cancer), 10 µM; read-out: GI%
In short: as §1

[21] = test system: OVCAR-3; settings: Homo sapiens; OVCAR-3 (Ovarian cancer), 10 µM; read-out: GI%
In short: as §1

[22] = test system: SK-MEL-28; settings: Homo sapiens; SK-MEL-28 (Melanoma), 10 µM; read-out: GI%
In short: as §1

[23] = test system: U251; settings: Homo sapiens, U-251; U251 (CNS cancer), 10 µM; read-out: GI%
In short: as §1

[24] = test system: HOP-92; settings: Homo sapiens; HOP-92 (Non-small cell lung cancer), 10 µM; read-out: GI%
In short: as §1

[25] = test system: KM12; settings: Homo sapiens; KM12 (Colon cancer), 10 µM; read-out: GI%
In short: as §1

[26] = test system: HT29; settings: Homo sapiens, HT-29; HT29 (Colon cancer), 10 µM; read-out: GI%
In short: as §1

SMILES	inhibition at 10 µM [1]	inhibition at 10 µM [2]	inhibition at 10 µM [3]	inhibition at 10 µM [4]	inhibition at 10 µM [5]	inhibition at 10 µM [6]	inhibition at 10 µM [7]	inhibition at 10 µM [9]	inhibition at 10 µM [11]	inhibition at 10 µM [12]	inhibition at 10 µM [13]	inhibition at 10 µM [14]	inhibition at 10 µM [15]	inhibition at 10 µM [16]	inhibition at 10 µM [17]	inhibition at 10 µM [18]	inhibition at 10 µM [19]	inhibition at 10 µM [20]	inhibition at 10 µM [21]	inhibition at 10 µM [22]	further results
COc1ccc(-c2nc3cc(C(=O)NN=Cc4cc(OC)c(OC)c(OC)c4)ccc3[nH]2)cc1 [8n, 2-(4-Methoxyphenyl)-N'-(3,4,5-trimethoxybenzylidene)-1H-benzo[d]imidazole-5-carbohydrazide]	< 5%	< 5%	29.8%	25%	38.8%	< 5%	9.66%	22.3%	20.1%	42.6%	< 5%	12.9%	< 5%	7.37%	< 5%	10.8%	21%	96.2%	< 5%	31.4%	inhibition at 10 µM [8]: 20.2%; inhibition at 10 µM [10]: 14.6%; inhibition at 10 µM [23]: 15.3%; inhibition at 10 µM [24]: < 5%; inhibition at 10 µM [25]: 13.8%
COc1ccc(C=NNC(=O)c2ccc3[nH]c(-c4ccc(Cl)cc4)nc3c2)cc1O [8s, 2-(4-Chlorophenyl)-N'-(3-hydroxy-4-methoxybenzylidene)-1H-benzo[d]imidazole-5-carbohydrazide]	< 5%	23.3%	85%	89.9%	> 100%	6.41%	31.3%	37.6%	69.1%	53.3%	< 5%	56.5%	< 5%	75.1%	63.8%	29.2%	72.7%	30.9%	47.5%	70.8%	inhibition at 10 µM [26]: > 100%; inhibition at 10 µM [23]: 75.2%; inhibition at 10 µM [24]: < 5%; inhibition at 10 µM [25]: 68.4%
COc1cc(C=NNC(=O)c2ccc3[nH]c(-c4ccccc4)nc3c2)cc(OC)c1OC [8g, 2-Phenyl-N'-(3,4,5-trimethoxybenzylidene)-1H-benzo[d]imidazole-5-carbohydrazide]	< 5%	38.4%	54.1%	48.5%	62%	< 5%	32.2%	50.4%	30.8%	89.3%	17%	37.9%	< 5%	30.5%	56.3%	49.4%	32%	50.7%	29.4%	40.4%	inhibition at 10 µM [26]: 47.3%; inhibition at 10 µM [23]: 42.3%; inhibition at 10 µM [24]: < 5%; inhibition at 10 µM [25]: 36.4%
